Test results as given in PMC7582822, “Constituents of Coreopsis lanceolata Flower and Their Dipeptidyl Peptidase IV Inhibitory Effects” (Molecules, 2020).
Read-outs that look alike come from different tables or passages of the source.

Molecular target: T1, human recombinant DPP-IV enzyme (Homo sapiens, UniProt P27487)
T1 construct: purchased Cayman Chemical
Experiment: DPP-IV inhibitor screening assay (Cayman kit, fluorogenic H-Gly-Pro-AMC substrate)
Format: biochemical
Conditions: for DPP-IV inhibitory effect (in words): isolates tested up to 100 μM
Protocol: Briefly, a DDP assay buffer consisting of 20 mM Tris-HCL (pH 8.0), […] and 1 mM EDTA was used for the assay solution. Each of the compounds were initially dissolved in DMSO at a concentration of 1 mM. Subsequently, the final concentration of compounds was diluted to 0.1, 1, 10, 25, 50 and 100 μM, respectively. The human recombinant DPP-IV enzyme and the substrate 5 mM H-Gly-Pro conjugated to aminomethylcoumarin (AMC) were put in the same buffer. Diluted assay buffer (30 μL) and diluted enzyme solution (10 μL) were added to a 96-well plate containing 10 μL of solvent (blank) or 10 μL of solvent-dissolved test compounds. The reaction by adding 50 μL of the diluted solution of the fluorogenic substrate was initiated and cleavage of the peptide bond by DPP released the free AMC group. The fluorescence was measured as an excitation wavelength of 350 nm and an emission wavelength of 450 nm using a plate reader (TECAN, Männedorf, Switzerland). The percentage inhibition was expressed as [(DPP-IV level of vehicle-treated control−DPP-IV level of test samples)/DPP-IV level of vehicle-treated control] × 100. Subsequently, the 50% inhibitory concentration (IC50) was determined using GraphPad Prism software (GaraphPad Software, La Jolla, CA, USA) via a dose–response analysis.

[1] = in vitro, compounds at 0.1-100 μM, values in text, read-out: IC50, inhibition of DPP-IV activity

T1 sequence (P27487 whole entry): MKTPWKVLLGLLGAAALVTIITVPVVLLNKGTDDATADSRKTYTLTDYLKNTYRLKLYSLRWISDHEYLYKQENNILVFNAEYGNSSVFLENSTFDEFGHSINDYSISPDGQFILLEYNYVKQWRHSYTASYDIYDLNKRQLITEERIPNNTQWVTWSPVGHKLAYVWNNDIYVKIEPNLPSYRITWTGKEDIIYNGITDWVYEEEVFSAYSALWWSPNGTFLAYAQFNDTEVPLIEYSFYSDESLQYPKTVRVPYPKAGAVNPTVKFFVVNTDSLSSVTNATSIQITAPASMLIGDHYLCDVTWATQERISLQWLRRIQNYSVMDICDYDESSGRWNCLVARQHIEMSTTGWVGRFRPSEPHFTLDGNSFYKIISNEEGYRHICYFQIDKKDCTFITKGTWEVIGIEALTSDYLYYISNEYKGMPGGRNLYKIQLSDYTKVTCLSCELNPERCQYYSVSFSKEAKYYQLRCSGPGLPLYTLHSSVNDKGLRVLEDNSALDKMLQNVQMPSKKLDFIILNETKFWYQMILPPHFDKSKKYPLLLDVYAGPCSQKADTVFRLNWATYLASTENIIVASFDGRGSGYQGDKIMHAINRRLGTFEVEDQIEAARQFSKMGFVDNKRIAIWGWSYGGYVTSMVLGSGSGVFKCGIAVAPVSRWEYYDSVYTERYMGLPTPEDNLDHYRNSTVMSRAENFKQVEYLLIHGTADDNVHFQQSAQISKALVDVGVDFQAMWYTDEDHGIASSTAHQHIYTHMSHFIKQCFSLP

## CC#CC#CC#C/C=C/[C@@H](CCCCO)O[C@@H]1O[C@H](CO)[C@@H](O)[C@H](O)[C@H]1O [Compound 1, (5R)-6E-tetradecene-8,10,12-triyne-1-ol-5-O-β-glucoside]
  DPP-IV inhibitory effect (in words): did not show their activities

## C=C[C@H](O)[C@H](/C=C/C#CC#CC#CC)O[C@@H]1O[C@H](CO)[C@@H](O)[C@H](O)[C@H]1O [Compound 11, (3S,4S)-5E-trideca-1,5-dien-7,9,11-triyne-3,4-diol-4-O-β-glucopyranoside]
  DPP-IV inhibitory effect (in words): did not show their activities

## COc1c(O)ccc2c1O[C@@H](c1ccc(O)c(O)c1)CC2=O [Compound 7, (2R)-8-methoxybutin]
[1]
  IC50: 64.9 µM
  DPP-IV inhibitory effect (in words): moderate

## COc1c(O)ccc(C(=O)/C=C/c2ccc(O)c(O)c2)c1O [Compound 2, lanceoletin]
dose-response curves, mean ± SD of three independent experiments, read-out: IC50, effect on DPP-IV activity (Figure 3)
  IC50: 9.55 µM
[1]
  IC50: 9.6 µM

## COc1c(O)ccc2c1O/C(=C\c1ccc(O)c(O)c1)C2=O [Compound 6, leptosidin]
[1]
  IC50: 13.3 µM
  DPP-IV inhibitory effect (in words): moderate

## COc1ccc(C=CC(=O)c2ccc(OC3OC(CO)C(O)C(O)C3O)c(OC)c2O)cc1O (stereo not shown) [Compound 3, 3,2′-dihydroxy-4-3′-dimethoxychalcone-4′-glucoside]
[1]
  IC50: 14.3 µM

## O=c1cc(-c2ccc(O)c(O)c2)oc2cc(O)cc(O)c12 [Compound 8, luteolin]
  DPP-IV inhibitory effect (in words): did not show their activities

## COc1ccc(/C=C/C(=O)c2ccc(O)c(OC)c2O)cc1O [Compound 4]
[1]
  IC50: 21.6 µM

## C/C=C/C#CC#CCCCO[C@@H]1O[C@H](CO)[C@@H](O)[C@H](O)[C@H]1O [Compound 10, bidenoside C]
  DPP-IV inhibitory effect (in words): did not show their activities

## O=c1c(O)c(-c2ccc(O)c(O)c2)oc2cc(O)cc(O)c12 [Compound 9, quercetin]
  DPP-IV inhibitory effect (in words): did not show their activities
